The nature of this series: Drug-drug interaction study with itraconazole. The class given is in vivo, humans. To be noted: for CL/F / Kel / Vd/F / half-life: arithmetic mean ± SD; for AUC % ex / AUC from 0 to 24 h (AUC0-24) / AUC(0-t) / AUC(0-inf) / Cmax: geometric mean; for AUC from 0 to 24 h (AUC0-24) / AUC(0-t) / Vd/F / half-life / AUC(0-inf) / Cmax / Tmax: both sexes, human, plasma, oral; for Vd/F: read-out: Vz/F; for half-life: read-out: t½ (converted); for Tmax: median. The procedure: An open-label, fixed-sequence, 2-period drug-drug interaction (DDI) study was designed to evaluate the effect of multiple doses of a strong inhibitor of CYP3A4 and P-gp on the single-dose PK of etrumadenant in humans. Etrumadenant was supplied as 25 mg capsules. Itraconazole was used as the representative strong inhibitor of CYP3A4 and P-gp. It was supplied as 10 mg/mL oral solution, Sporanox® by Janssen Pharmaceuticals (or generic equivalent). Twenty (20) healthy, adult male and female (of non-childbearing potential) participants were enrolled. Screening of participants occurred within 28 days prior to the first dosing.
On Day 1 of Period 1, a single 150 mg dose of etrumadenant was orally administered under fasting conditions (i.e., at least 10 hours of fasting prior to dosing and at least 4 hours postdose). PK sampling for etrumadenant and its metabolites was taken predose and up to 120 hours postdose. There was a washout of 5 days between the etrumadenant dose in Period 1 and the first itraconazole dose in Period 2.
In Period 2, 200 mg itraconazole was orally administered twice a day (BID) on Day 1 and once a day (QD) for 9 consecutive days (on Days 2 through 10) with a single 150 mg dose of etrumadenant orally administered 1 hour after itraconazole dosing on Day 6. Itraconazole was administered under fasting conditions. On Day 6, participants fasted for at least 10 hours prior to and at least 4 hours post etrumadenant dosing. PK sampling for etrumadenant and its metabolites was taken predose and up to 120 hours after etrumadenant dosing. PK sampling for itraconazole and 1-hydroxy-itraconazole was collected on Days 5, 6, 7, 9, and 11.
Itraconazole was administered twice on the first day of Period 2 as a loading dose to accelerate CYP3A inhibition and the inhibition was then maintained by administering itraconazole 200 mg QD for 9 consecutive days. A 200 mg BID dose level is expected to provide similar inhibition to a 400 mg QD dose. Although itraconazole reaches steady state within approximately 15 days, it has been established that QD administration of 200 mg itraconazole for 3 to 5 days allows maximum CYP3A inhibition sufficient to detect a DDI. […] As such, administration of itraconazole for at least 4 days is considered sufficient in DDI studies as a CYP3A4 and P-gp inhibitor. To maintain the level of inhibition, itraconazole was administered throughout PK sampling of etrumadenant (i.e., through Day 10 of Period 2). In addition, the itraconazole oral solution was administered under fasting conditions to maximize bioavailability.
Participants were housed on Day −1 of Period 1, at the time indicated by the clinical research unit (CRU), until after the 120-hour blood draw and completion of study procedures in Period 2. Safety was monitored throughout the study by repeated clinical and laboratory evaluations. In this study, there were no discontinued participants. All participants who received at least one dose of study drug (including participants who terminated the study early) were asked to return to the CRU approximately 14 days after the last dose for follow-up procedures, and to determine if any adverse event (AE) had occurred since the last study visit. All adverse events reported in the study were mild and resolved without treatment.

Setting [1] is: Etrumadenant 150 mg + Itraconazole.
Setting [2] is: multiple doses of itraconazole compared to etrumadenant given alone.

Like-named read-outs stand apart in the source and are kept apart here.

Turning to `Cc1c(C#N)cccc1-c1cc(-c2cn(Cc3cccc(C(C)(C)O)n3)nn2)nc(N)n1` [Etrumadenant, 3-[2-amino-6-(1-{[6-(2-hydroxypropan-2-yl)pyridine-2-yl]methyl}-1H-1,2,3-triazol-4-yl)pyrimidin-4-yl]-2-methylbenzonitrile], under setting [1], the CL/F is 2.52 ± 0.842 L/h, the Kel stood at 0.0255 ± 0.00605 h⁻¹, the AUC % ex is 4.39% and the Vd/F was 100 ± 28.3 L. Besides, under setting [1], the half-life was 28.7 ± 7.01 h, the AUC(0-inf) is 62600 ng·h/mL, the area under the curve AUC(0-t) stood at 59400 ng·h/mL and the Cmax was determined as 3530 ng/mL. In addition, under setting [1], the time of peak concentration (Tmax) came out at 1.52 h. For the same compound, for the setting “Etrumadenant Alone, 150 mg”, the CL/F is 4.00 ± 1.12 L/h, the Kel came to 0.0249 ± 0.00663 h⁻¹, the AUC % ex was 3.90% and the Vd/F came to 172 ± 64.8 L. For the same compound, under “Etrumadenant Alone, 150 mg”, the half-life is 29.9 ± 8.88 h, the AUC(0-inf) came to 38600 ng·h/mL, the Cmax amounted to 3000 ng/mL and the Tmax is 1.38 h. Where the note is “150 mg, Etrumadenant Alone, 150 mg (6 × 25 mg capsules), fasting”, the AUC from 0 to 24 h (AUC0-24) is 21600 ng·h/mL. The AUC(0-t) (150 mg, Etrumadenant Alone) amounted to 36500 ng·h/mL. For the same compound, the AUC from 0 to 24 h (AUC0-24) (Etrumadenant 150 mg + Itraconazole 200 mg multiple doses) was found to be 30700 ng·h/mL. Moreover, under setting [2], the “increase in etrumadenant AUCinf” value is listed as approximately 62%, the “increase in etrumadenant AUClast” value is recorded as “approximately 63%” and the “increase in etrumadenant Cmax” value was approximately 18%.

(Values after patent US20260115190A1, “DISPERSIONS OF ETRUMADENANT” (Arcus Biosciences, Inc., priority 2022, published 2026).)
